The values that follow come from paper PMC8863796 (Communications Biology, 2022).

Values joined by “and” are separate entries in the source; they are usually repeats but may differ in a detail not shown here. Equal values may be shown once. “Also recorded” adds a separate entry of the source. Read-outs that look alike come from different tables or passages of the source.

Broadly, the CC50 is the concentration giving 50% cytotoxicity. Usually EC25 stands for the concentration at which the effect reaches the 25% level. By EC50 is commonly meant the concentration giving half of the maximal effect. By EC90 is commonly meant the concentration at which the effect reaches the 90% level.

Data set [1] has as its system SARS-CoV-2. It counts as cell-based. More on the design: Response: unit not given here.
A short description of data set [2]: Cytotoxicity assay (XTT). It counts as cell-based. The conditions noted are these: human. How it is done:
Monolayers of 1.5 × 10^4 cells in 96-well plates were treated for 3 days with various concentrations (semi-log dilutions from 1000 to 10 µM) of the antiviral drugs. Then, 5 mg/ml 2,3-bis-(2-methoxy-4-nitro-5-sulfophenyl)-2H-tetrazolium-5-carboxanilide (XTT) in DMEM was added to the cells in the presence of 0.01% N-methyl dibenzopyrazine methyl sulfate (PMS). After incubating for 4 h at 37 °C, the cells were measured in a spectrophotometer at 492 nm and 620 nm.
A general note: Tetrazolium assays rely on reduction of a dye to a coloured formazan, in cell work by metabolically active cells.

Data set [3] relates to SARS-CoV-2. Nature of the data set: microbe, parasite or virus in culture. As to conditions: for EC25: concentration used in combinations; for virus titer: Calu-3, MOI 0.1, three columns per treatment. It counts as cell-based.
For data set [4], the target named is SARS-CoV-2 exonuclease complex (nsp14/nsp10) (Severe acute respiratory syndrome coronavirus 2, UniProt P0DTD1). It counts as biochemical.
Setting [5] is: Drug2 100 nM alone (Drug1 0 nM).
The mark [6] stands for this setting: Drug2 1000 nM alone (Drug1 0 nM).
[7] abbreviates: Drug2 5000 nM alone (Drug1 0 nM).
The mark [8] stands for this setting: Table S-1, 3 days treatment, XTT, read-out: CC50.
Where [9] appears, read: Severe acute respiratory syndrome coronavirus 2, 48 h, Calu-3 cells, MOI 0.1, 48-72 h, PFU in Vero E6, NS5A inhibitor at fixed concentration in combinations.
Setting [10] is: Drug1 100 nM alone (Drug2 0 nM).
Where [11] appears, read: Drug1 1000 nM alone (Drug2 0 nM).
Setting [12] is: Drug1 10000 nM alone (Drug2 0 nM).
[13] abbreviates: combined with Ombitasvir, Calu-3 cells.
Where [14] appears, read: 30 nM nsp14/nsp10, 500 nM RNA, 30, 100, 300 µM.

As for `COC(=O)N[C@H](C(=O)N1CCC[C@H]1c1nc(-c2ccc(-c3ccc(-c4c[nH]c([C@@H]5CCCN5C(=O)[C@@H](NC(=O)OC)C(C)C)n4)cc3)cc2)c[nH]1)C(C)C` [Daclatasvir], the “Response (percentage of inhibition)” value in data set [1] (Conc1 0 nM, Conc2 100 nM) stood at 3%; in data set [1] (Conc1 0 nM, Conc2 500 nM) it was 10%; in data set [1] (Conc1 0 nM, Conc2 1000 nM), 45%; in data set [1] (Conc1 0 nM, Conc2 5000 nM), 62%. In addition, the Response in data set [1] (setting [5]) is given as 3; in data set [1] (Drug2 500 nM alone (Drug1 0 nM)), 10; in data set [1] (setting [6]), 45; in data set [1] (setting [7]) it was 62. Also, the “combination effect (SynergyFinder)” value is “additive (between 10 and −10)” in data set [1] (with RDV); “synergistic (scores above 10)” in data set [1] (with the other RdRp inhibitors tested (Fig. 8b-d)). The CC50 at 3 days in data set [2] (setting [8]) was 38 ± 5 µM. In addition, the EC25 in data set [3] (Calu-3 cells) was determined as 0.5 µM. Besides, the EC50 in data set [3] (setting [9]) turned out to be 0.7 µM. For the same compound, the EC90 in data set [3] (setting [9]) was determined as 3.8 µM.
Regarding `NC(=O)c1nc(F)cnc1O` [Favipiravir, 6-fluoro-3-hydroxy-2-pyrazinecarboxamide], the Response was determined as 10 in data set [1] (Drug1 10 nM alone (Drug2 0 nM)), 49 in data set [1] (setting [10]), 63 in data set [1] (setting [11]) and 70 in data set [1] (setting [12]). The compound further showed a CC50 at 3 days in data set [2] of 670 ± 118 µM. Further, the virus titer was 8.96E+05 PFU/mL and 1.41E+06 PFU/mL in data set [3] (Drug Concentration 0.01 μM); 5.76E+05 PFU/mL and 7.04E+05 PFU/mL in data set [3] (Drug Concentration 0.1 μM); 4.48E+05 PFU/mL and 5.12E+05 PFU/mL in data set [3] (Drug Concentration 1 μM); 4.16E+05 PFU/mL and 2.24E+05 PFU/mL in data set [3] (Drug Concentration 10 μM). Moreover, the EC50 in data set [3] (setting [9]) came to 7.8 µM. Further, the “fold increase of potency” value in data set [3] (by Pibrentasvir (0.1 μM)) is “tenfold”. Moreover, the “inhibition of SARS-CoV-2” value in data set [3] (setting [13]) is listed as 2 log10. For the same compound, the “reduction of virus replication” value in data set [3] (setting [13]) was 99%.
Take `Cc1cccc(C)c1OCC(=O)N[C@@H](Cc1ccccc1)[C@@H](O)C[C@H](Cc1ccccc1)NC(=O)[C@H](C(C)C)N1CCCNC1=O` [Lopinavir]: in data set [4] (setting [14]), the “inhibition of SARS-CoV-2 exonuclease activity” value was “exonuclease activity was inhibited; also recorded: inhibit the SARS-CoV-2 exonuclease in a concentration-dependent manner, but with less potency than Pibrentasvir and Ombitasvir”.
`COC(=O)N[C@H](C(=O)N1CCC[C@H]1C(=O)Nc1ccc([C@@H]2CC[C@@H](c3ccc(NC(=O)[C@@H]4CCCN4C(=O)[C@@H](NC(=O)OC)C(C)C)cc3)N2c2ccc(C(C)(C)C)cc2)cc1)C(C)C` [Ombitasvir]: the “Response (percentage of inhibition)” value in data set [1] (Conc1 0 nM, Conc2 10 nM) was 2%; in data set [1] (Conc1 0 nM, Conc2 100 nM) it was 20%; in data set [1] (Conc1 0 nM, Conc2 1000 nM), 50%; in data set [1] (Conc1 0 nM, Conc2 5000 nM), 75%. The Response in data set [1] (Drug2 10 nM alone (Drug1 0 nM)) turned out to be 2; in data set [1] (setting [5]), 20; in data set [1] (setting [6]), 50; in data set [1] (setting [7]) it was 75. Further, the “combination effect (SynergyFinder)” value in data set [1] (with Favipiravir), in data set [1] (with RDV), in data set [1] (with Sofosbuvir) and in data set [1] (with Tenofovir) was “synergistic (scores above 10)” in each case. Also, in data set [2] (setting [8]), the half-maximal cytotoxic concentration (CC50) at 3 days worked out at 70 ± 12 µM. For the same compound, in data set [3] (Calu-3 cells), the 25% effect concentration (EC25) came out at 0.1 µM.
Regarding `COC(=O)N[C@H](C(=O)N1CCC[C@H]1c1nc2cc([C@H]3CC[C@H](c4cc5nc([C@@H]6CCCN6C(=O)[C@@H](NC(=O)OC)[C@@H](C)OC)[nH]c5cc4F)N3c3cc(F)c(N4CCC(c5ccc(F)cc5)CC4)c(F)c3)c(F)cc2[nH]1)[C@@H](C)OC` [Pibrentasvir], the “Response (percentage of inhibition)” value in data set [1] (Conc1 0 nM, Conc2 10 nM) worked out at 2%; in data set [1] (Conc1 0 nM, Conc2 100 nM) it was 20%; in data set [1] (Conc1 0 nM, Conc2 1000 nM), 50%; in data set [1] (Conc1 0 nM, Conc2 5000 nM), 75%. Besides, the Response in data set [1] (Drug2 10 nM alone (Drug1 0 nM)) is given as 2; in data set [1] (setting [5]), 20; in data set [1] (setting [6]), 50; in data set [1] (setting [7]), 75. The “combination effect (SynergyFinder)” value was “synergistic (scores above 10)” in data set [1] (with Favipiravir); “synergistic (scores above 10)” in data set [1] (with RDV); “additive (between 10 and −10)” in data set [1] (with Sofosbuvir); “additive (between 10 and −10)” in data set [1] (with Tenofovir). Also, the “inhibition of SARS-CoV-2 exonuclease activity” value in data set [4] (500 nM RNA, 50 nM nsp14/nsp10, 37 °C, 15 min, varying amounts of inhibitor (Pibrentasvir 1, 10, 20 μM)) is recorded as “reduced exonuclease activity in a concentration-dependent manner”; in data set [4] (20 μM, Favipiravir-, NHC- and AT-9010-terminated RNA), “exonuclease activity was largely abrogated”; in data set [4] (20 µM, RNA with delayed termination by Remdesivir, 400 nM RNA), “exonuclease activity was inhibited”; in data set [4] (20 µM, Sofosbuvir- and Remdesivir-terminated RNA), “exonuclease activity was substantially inhibited”; in data set [4] (20 µM, Tenofovir-terminated RNA), “exonuclease activity was almost completely eliminated”. Further, in data set [2] (setting [8]), the CC50 at 3 days amounted to 22 ± 3 µM. Besides, the EC25 in data set [3] (Calu-3 cells) amounted to 0.1 µM.
As to `CCC(CC)COC(=O)[C@H](C)N[P@](=O)(OC[C@H]1O[C@@](C#N)(c2ccc3c(N)ncnn23)[C@H](O)[C@@H]1O)Oc1ccccc1` [Remdesivir], the “Response (percentage of inhibition)” value turned out to be 20% in data set [1] (Conc1 1 nM, Conc2 0 nM); 43% in data set [1] (Conc1 10 nM, Conc2 0 nM); 76.92% in data set [1] (Conc1 100 nM, Conc2 0 nM); 99.13% in data set [1] (Conc1 1000 nM, Conc2 0 nM). Moreover, the CC50 at 3 days in data set [2] (setting [8]) turned out to be 480 ± 55 µM. Also, the “EC99 Mean” value in data set [3] (Calu-3 cells, MOI 0.1, 48-72 h, PFU in Vero E6, NS5A inhibitor at fixed concentration in combinations) came to 1.1 µM. Besides, the virus titer in data set [3] (Drug Concentration 0.01 μM, listed as RDV) is 6.40E+05 PFU/mL and 5.76E+05 PFU/mL and 6.08E+05 PFU/mL; in data set [3] (Drug Concentration 0.1 μM, listed as RDV), 3.20E+05 PFU/mL and 1.92E+05 PFU/mL and 2.56E+05 PFU/mL; in data set [3] (Drug Concentration 10 μM) it was 2.00E+03 PFU/mL. Also, in data set [3] (by Pibrentasvir (0.1 μM)), the “fold improvement of efficacy at the 90% level” value was “six-”. In data set [3] (by Pibrentasvir (0.1 μM)), the “fold improvement of efficacy at the 99% level” value is “threefold”.
For `CC(C)c1nc(CN(C)C(=O)N[C@H](C(=O)N[C@@H](Cc2ccccc2)C[C@H](O)[C@H](Cc2ccccc2)NC(=O)OCc2cncs2)C(C)C)cs1` [Ritonavir], the “inhibition of SARS-CoV-2 exonuclease activity” value in data set [4] (setting [14]) is “exonuclease activity was inhibited; also recorded: inhibit the SARS-CoV-2 exonuclease in a concentration-dependent manner, but with less potency than Pibrentasvir and Ombitasvir”.
Turning to `CC(C)OC(=O)[C@H](C)N[P@](=O)(OC[C@H]1O[C@@H](n2ccc(=O)[nH]c2=O)[C@](C)(F)[C@@H]1O)Oc1ccccc1` [Sofosbuvir], the “Response (percentage of inhibition)” value in data set [1] (Conc1 10 nM, Conc2 0 nM) was determined as 10%; in data set [1] (Conc1 100 nM, Conc2 0 nM) it was 20%; in data set [1] (Conc1 1000 nM, Conc2 0 nM), 74.62%; in data set [1] (Conc1 10000 nM, Conc2 0 nM), 76.92%. The CC50 at 3 days in data set [2] (setting [8]) worked out at 512 ± 34 µM. Besides, the virus titer was 6.40E+05 PFU/mL and 1.28E+06 PFU/mL and 9.60E+05 PFU/mL in data set [3] (Drug Concentration 0.01 μM); 3.52E+05 PFU/mL in data set [3] (Drug Concentration 1 μM).
With `CC(C)OC(=O)OCOP(=O)(CO[C@H](C)Cn1cnc2c(N)ncnc21)OCOC(=O)OC(C)C` [Tenofovir, Tenofovir disoproxil], the Response in data set [1] (Drug1 10 nM alone (Drug2 0 nM)) was 5; in data set [1] (setting [10]), 30; in data set [1] (setting [11]) it was 58.46; in data set [1] (setting [12]) it was 88.46. The “excision of the incorporated nucleotide analogue from RNA by the exonuclease” value in data set [4] (no inhibitor, 37 °C, 15 min, compared with A-terminated natural RNA) is on record as “mostly resistant to excision by the SARS-CoV-2 exonuclease”. In addition, in data set [2] (setting [8]), the cytotoxic concentration (CC50) at 3 days was 91 ± 25 µM. The virus titer in data set [3] (Drug Concentration 1 μM) is 1.02E+06 PFU/mL and 5.76E+05 PFU/mL and 7.98E+05 PFU/mL; in data set [3] (Drug Concentration 10 μM), 8.00E+04 PFU/mL and 4.00E+04 PFU/mL and 6.00E+04 PFU/mL. Also, the EC50 in data set [3] (setting [9]) was 4.3 µM. For the same compound, the “fold increase of potency” value in data set [3] (by Pibrentasvir (0.1 μM)) was “tenfold”.
